# The source made the active and inactive calls. The calls are words filed in the database; no cut-off is given here.
# Experiments:
# [1] = biological target: T1, DNA topoisomerase 1 (Homo sapiens) (UniProt P11387); test: Inhibition of recombinant TOP1 (unknown origin) using 3'-[32P]-labeled 117 bp DNA oligonucleotide assessed as […] TOP1-mediated DNA cleavage incubated for 20 mins by PAGE analysis relative to 1 uM CPT
# T1 sequence (whole entry): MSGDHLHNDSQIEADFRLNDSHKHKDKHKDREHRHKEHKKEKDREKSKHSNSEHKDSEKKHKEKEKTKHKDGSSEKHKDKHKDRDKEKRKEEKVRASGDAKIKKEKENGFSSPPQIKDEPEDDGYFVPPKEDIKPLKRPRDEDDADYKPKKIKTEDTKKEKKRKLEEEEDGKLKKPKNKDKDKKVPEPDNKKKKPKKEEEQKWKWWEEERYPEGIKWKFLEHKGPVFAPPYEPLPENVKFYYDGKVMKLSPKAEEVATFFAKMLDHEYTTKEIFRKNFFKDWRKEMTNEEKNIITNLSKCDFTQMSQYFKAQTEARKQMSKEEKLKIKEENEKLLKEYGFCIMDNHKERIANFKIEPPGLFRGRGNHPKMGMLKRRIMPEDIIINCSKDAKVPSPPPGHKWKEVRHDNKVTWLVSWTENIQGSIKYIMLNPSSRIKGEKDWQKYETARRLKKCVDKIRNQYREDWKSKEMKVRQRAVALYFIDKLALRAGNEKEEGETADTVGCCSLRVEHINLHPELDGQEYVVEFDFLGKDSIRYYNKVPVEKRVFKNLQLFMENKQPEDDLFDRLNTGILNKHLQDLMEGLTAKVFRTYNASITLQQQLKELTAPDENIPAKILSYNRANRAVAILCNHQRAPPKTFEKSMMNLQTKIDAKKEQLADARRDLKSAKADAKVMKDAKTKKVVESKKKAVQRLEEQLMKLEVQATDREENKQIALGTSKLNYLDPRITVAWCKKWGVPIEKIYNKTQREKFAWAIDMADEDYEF
# [2] = biological target: T1, DNA topoisomerase 1 (Homo sapiens); test: Inhibition of recombinant TOP1 (unknown origin) using 3'-[32P]-labeled 117 bp DNA oligonucleotide assessed as TOP1-mediated DNA cleavage by measuring induction and stabilization of cleavage sites 17, 35 and 79 incubated for 20 mins by PAGE analysis
# [3] = tested on: HCT-116; test: cells; conditions: Homo sapiens, HCT-116, 72 h
# [4] = tested on: MCF7; test: cells; conditions: Homo sapiens, MCF7, 72 h
# [5] = tested on: DU-145; test: cells; conditions: Homo sapiens, DU-145, 72 h
# [6] = tested on: A549; test: cells; conditions: Homo sapiens, A549, 72 h
# [7] = biological target: T1, DNA topoisomerase 1 (Homo sapiens); test: Inhibition of TOP1 in human HCT116 cells assessed as induction of cellular TOP1cc formation incubated for 1 hr by chemiluminescence based assay; type: cell-based
# [8] = biological target: T1, DNA topoisomerase 1 (Homo sapiens); test: Inhibition of TOP1 in human HCT116 cells assessed as induction of cellular TOP1cc formation at 25 uM incubated for 1 hr by chemiluminescence based assay; type: cell-based
# [9] = biological target: T1, DNA topoisomerase 1 (Homo sapiens); test: Inhibition of TOP1 in human HCT116 cells assessed as induction of DNA damage by measuring increase in gammaH2AX foci at 1 uM incubated for 3 hrs by DAPI staining based immunofluorescence microscopic method; type: cell-based
# [10] = biological target: T1, DNA topoisomerase 1 (Homo sapiens); test: Inhibition of recombinant TOP1 (unknown origin) using 3'-[32P]-labeled 117 bp DNA oligonucleotide assessed as TOP1-mediated DNA cleavage by measuring induction and stabilization of cleavage sites 17, 35 and 79 at 1 uM incubated for 20 mins by PAGE analysis
SMILES,inhibition [1] [%],Activity [2],GI50 [3] [µM],GI50 [4] [µM],GI50 [5] [µM],GI50 [6] [µM],Activity [7],Activity [8],Activity [9],Activity [10]
COc1cc2c(=O)n(CCNS(=O)(=O)N3CCOCC3)c3c4cc5c(cc4ccc3c2cc1OC)OCO5,50 to 75,Dose-dependent effect,1.1,0.89,1.6,2.9,–,–,–,–
COc1cc2c(=O)n(CCN(C)S(=O)(=O)C(F)(F)F)c3c4cc5c(cc4ccc3c2cc1OC)OCO5,0 to 50,–,86,35,65,42,–,–,–,–
COc1cc2c(=O)n(CCNC(=O)C3CC3)c3c4cc5c(cc4ccc3c2cc1OC)OCO5,20 to 50,–,5.3,2.2,7.8,1.3,–,–,–,–
COc1cc2c(=O)n(CCN(C)P(=O)(OC)OC)c3c4cc5c(cc4ccc3c2cc1OC)OCO5,50 to 75,Dose-dependent effect,9.2,10,5.3,14,–,–,–,–
COc1cc2c(=O)n(CCNS(=O)(=O)C3CC3)c3c4cc5c(cc4ccc3c2cc1OC)OCO5,50 to 75,Dose-dependent effect,5.2,3,1.3,4.3,–,–,–,–
COc1cc2c(=O)n(CCNP(=O)(OC)OC)c3c4cc5c(cc4ccc3c2cc1OC)OCO5,0 to 50,–,51,48,39,41,–,–,–,–
CC[C@@]1(O)C(=O)OCc2c1cc1n(c2=O)Cc2cc3ccccc3nc2-1,–,–,–,–,–,–,Dose-dependent effect,Active,Active,inactive
COc1cc2c(=O)n(CCN(C)S(=O)(=O)N3CCCC3)c3c4cc5c(cc4ccc3c2cc1OC)OCO5,20 to 50,–,2.5,3.8,3.1,5.3,–,–,–,–
COc1cc2c(=O)n(CCN(C)S(=O)(=O)N(C)C)c3c4cc5c(cc4ccc3c2cc1OC)OCO5,20 to 50,–,0.96,1.5,15,7.9,–,–,–,–
COc1cc2c(=O)n(CCNS(=O)(=O)N(C)C)c3c4cc5c(cc4ccc3c2cc1OC)OCO5,20 to 50,–,30,21,45,35,–,–,–,–
COc1cc2c(=O)n(CCN(C)S(=O)(=O)N3CCOCC3)c3c4cc5c(cc4ccc3c2cc1OC)OCO5,20 to 50,–,40,64,48,35,–,–,–,–
COc1cc2c(=O)n(CCN(C)P3(=O)OCCO3)c3c4cc5c(cc4ccc3c2cc1OC)OCO5,50 to 75,Dose-dependent effect,–,–,–,–,–,–,–,–
COc1cc2c(=O)n(CCNS(=O)(=O)N3CCCC3)c3c4cc5c(cc4ccc3c2cc1OC)OCO5,0 to 50,–,34,38,79,61,–,–,–,–
COc1cc2c(=O)n(C)c3c4cc5c(cc4ccc3c2cc1OC)OCO5,–,–,74,31,64,39,–,–,–,–
COc1cc2c(=O)n(CCN(C)S(=O)(=O)C3CC3)c3c4cc5c(cc4ccc3c2cc1OC)OCO5,20 to 50,–,7.9,5.8,10,15,–,–,–,–
COc1cc2c3c(n(CCCNCCO)c(=O)c2cc1OC)-c1cc2c(cc1C3=O)OCO2,–,–,–,–,–,–,–,–,–,Active
